Where a name gives a salt, the structure may show the parent alone.

Sequence of TAFIa (Q96IY4 115-423): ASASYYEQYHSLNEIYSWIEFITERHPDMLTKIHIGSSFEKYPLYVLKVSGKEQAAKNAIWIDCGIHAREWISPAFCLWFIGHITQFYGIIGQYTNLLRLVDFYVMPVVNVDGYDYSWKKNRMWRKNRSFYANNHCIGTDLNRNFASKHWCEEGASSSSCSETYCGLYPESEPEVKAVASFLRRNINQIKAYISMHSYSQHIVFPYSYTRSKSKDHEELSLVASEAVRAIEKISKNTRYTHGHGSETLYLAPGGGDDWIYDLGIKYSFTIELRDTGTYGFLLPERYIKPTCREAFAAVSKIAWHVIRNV

In one assay the target is TAFIa (Homo sapiens (Human), UniProt Q96IY4). Kind of assay: Determination of TAFIa enzyme inhibitory activity. The format is biochemical. As to conditions: substrate furylacryloyl-alanyl-lysine (FAAK), absorbance at 330 nm. On the procedure:
HEPES buffered saline (20 mM HEPES, 150 mM NaCl, pH 7.4; hereinafter, referred to as HBS) was used in the preparation of a reaction solution. To 12 μL of a 250 μg/mL TAFI solution, 30 μL of an HBS solution containing 4 U/mL human thrombin, 12 U/mL rabbit lung thrombomodulin, and 12 mM CaCl2 was added, and the mixture was gently stirred. Then, TAFI was activated at room temperature. Ten minutes later, thrombin was neutralized by the addition of 10 μL of 100 μM PPACK (thrombin inhibitor) to terminate the activation of TAFI. The formed TAFIa was stored in ice and diluted immediately before use in determination with 2050 μL of an HBS solution containing BSA (bovine serum albumin) adjusted to 0.1% in terms of the final concentration.
A test substance was dissolved in HBS to prepare a 10-fold dilution series of evaluation concentrations. 80 μl, of the TAFIa solution and 10 μL of the test substance were added to each well of a 96-well plate and mixed by shaking for 10 minutes. 10 μL, of furylacryloyl-alanyl-lysine (FAAK) adjusted to 5 mg/mL was added to each well, and the change in the absorbance of this mixed solution at 330 nm was read for 30 minutes to determine the degradation rate of the substrate.
The degradation rate of the substrate in each well was applied to a standard curve prepared using the dilution series of the TAFIa solution to calculate TAFIa activity. The 50% inhibitory concentration (IC50) was calculated based on the correlation between the concentration of the test compound and the TAFIa activity. Compound A (compound of Example 7 in the pamphlet of International Publication No. WO 2002/014285) was used as a control.
Regarding `C[C@H](CN)C[C@@H](Cc1cn([C@H]2CC[C@H](C)CC2)cn1)C(=O)O` [34(2S,4S form), (2S,4S)-5-Amino-4-methyl-2-{[1-(trans-4-methylcyclohexyl)-1H-imidazol-4-yl]methyl}valeric acid], the IC50 (usually the concentration at which inhibition is half-maximal) stood at 5.4 nM.
Regarding `CC[C@H]1CC[C@H](n2cnc(CC(CCCN)C(=O)O)c2)CC1` (stereo partly drawn) [Example 3, 5-Amino-2-{[1-(trans-4-ethylcyclohexyl)-1H-imidazol-4-yl]methyl}valeric acid], the 50% inhibitory concentration (IC50) worked out at 8.8 nM.
Still for that read-out and setting: under `NCCCC(Cc1cn([C@@H]2C[C@H]3C[C@H]3C2)cn1)C(=O)O` (mixture of isomers) [Example 6, (2RS)-5-Amino-2-({1-[(1R,3s,5S)-bicyclo[3.1.0]hexan-3-yl]-1H-imidazol-4-yl}methyl)valeric acid] stands 21 nM; under `C[C@@H](CN)C[C@H](Cc1cn([C@H]2CC[C@H](C)CC2)cn1)C(=O)O` [35(2R,4R form), (2R,4R)-5-Amino-4-methyl-2-{[1-(trans-4-methylcyclohexyl)-1H-imidazol-4-yl]methyl}valeric acid], over 100 nM.
Turning to `NCCCC(Cc1cn([C@H]2CC[C@H](Oc3ccccc3)CC2)cn1)C(=O)O` (stereo partly drawn) [Example 14, 5-Amino-2-{[1-(trans-4-phenoxycyclohexyl)-1H-imidazol-4-yl]methyl}valeric acid], the midpoint of inhibition, the IC50, lay at 13 nM.
On the same count and under the same terms, under `C[C@H]1CC[C@@H](n2cnc(CC(CCCN)C(=O)O)c2)CC1` (stereo partly drawn) [Example 39, 5-Amino-2-{[1-(cis-4-methylcyclohexyl)-1H-imidazol-4-yl]methyl}valeric acid] stands 9.3 nM; under `C[C@H]1CC[C@H](n2cnc(C[C@H](CCCN)C(=O)O)c2)CC1` [15(2S form), (2S)-5-Amino-2-{[1-(trans-4-methylcyclohexyl)-1H-imidazol-4-yl]methyl}valeric acid], 7.8 nM; under `CCC(CN)CC(Cc1cn([C@H]2CC[C@H](C)CC2)cn1)C(=O)O` (stereo partly drawn) [Example 36, 4-(Aminomethyl)-2-{[1-(trans-4-methylcyclohexyl)-1H-imidazol-4-yl]methyl}hexanoic acid hydrochloride], 10 nM.
The same measure, in the same setting: next, `C[C@H]1CC[C@H](n2cnc(C[C@@H](CCCN)C(=O)O)c2)CC1` [15(2R form), (2R)-5-Amino-2-{[1-(trans-4-methylcyclohexyl)-1H-imidazol-4-yl]methyl}valeric acid]: over 100 nM; `CC1CCCC(n2cnc(CC(CCCN)C(=O)O)c2)C1` (stereo not shown) [Example 9, 5-Amino-2-{[1-(3-methylcyclohexyl)-1H-imidazol-4-yl]methyl}valeric acid]: 18 nM.
Take `NCCCC(Cc1cn(C2C3CC4CC(C3)CC2C4)cn1)C(=O)O` (stereo not shown) [Example 13, 2-[(1-Adamantan-2-yl-1H-imidazol-4-yl)methyl]-5-aminovaleric acid]: the IC50 amounted to 12 nM.
The compound `CCC1CC(n2cnc(CC(CCCN)C(=O)O)c2)C1` (stereo not shown) [Example 4, 5-Amino-2-{[1-(3-ethylcyclobutyl)-1H-imidazol-4-yl]methyl}valeric acid] came in with an IC50 of 14 nM.
Same read-out and setting: next, `C[C@H]1CC[C@H](n2cnc(C[C@H](CCCN)C(=O)O)c2)CC1` [Example 40, (2S)-5-Amino-2-{[1-(trans-4-methylcyclohexyl)-1H-imidazol-4-yl]methyl}valeric acid p-toluenesulfonate anhydrate]: 2.6 nM; `C[C@H]1CC[C@H](n2cnc(CC(CCCN)C(=O)O)c2)CC1` (stereo partly drawn) [Example 2, 5-Amino-2-{[1-(trans-4-methylcyclohexyl)-1H-imidazol-4-yl]methyl}valeric acid]: 8.3 nM; `NCCCC(Cc1cn([C@@H]2CC3CCC2C3)cn1)C(=O)O` (stereo partly drawn) [Example 11, 5-Amino-2-({1-[exo-bicyclo[2.2.1]hept-2-yl]-1H-imidazol-4-yl}methyl)valeric acid]: 14 nM.
On to `CC1(C)CCCC(n2cnc(CC(CCCN)C(=O)O)c2)C1` (stereo not shown) [Example 33, 5-Amino-2-{[1-(3,3-dimethylcyclohexyl)-1H-imidazol-4-yl]methyl}valeric acid], for which the IC50 is 7.5 nM.
Same read-out and setting: under `CC1CC(n2cnc(CC(CCCN)C(=O)O)c2)C1` (stereo not shown) [Example 5, 5-Amino-2-{[1-(3-methylcyclobutyl)-1H-imidazol-4-yl]methyl}valeric acid] stands 36 nM; under `NCCCC(Cc1cn([C@H]2CC[C@H](O)CC2)cn1)C(=O)O` (stereo partly drawn) [Example 7, 5-Amino-2-{[1-(trans-4-hydroxycyclohexyl)-1H-imidazol-4-yl]methyl}valeric acid], 26 nM; under `CC1(O)CCC(n2cnc(CC(CCCN)C(=O)O)c2)CC1` (stereo not shown) [Example 8, 5-Amino-2-{[1-(4-hydroxy-4-methylcyclohexyl)-1H-imidazol-4-yl]methyl}valeric acid], 19 nM.
Still for that read-out and setting: next, `C[C@@H](CN)C[C@@H](Cc1cn([C@H]2CC[C@H](C)CC2)cn1)C(=O)O` [35(2S,4R form), (2S,4R)-5-Amino-4-methyl-2-{[1-(trans-4-methylcyclohexyl)-1H-imidazol-4-yl]methyl}valeric acid]: 5.1 nM; `NCCCC(Cc1cn(C2CCCCC2)cn1)C(=O)O` (stereo not shown) [Example 1, 5-Amino-2-[(1-cyclohexyl-1H-imidazol-4-yl)methyl]valeric acid]: 21 nM.
On the same count and under the same terms, next, `C[C@H]1CC[C@H](n2cnc(CC(OCCN)C(=O)O)c2)CC1` (stereo partly drawn) [Example 24, 2-(2-Aminoethoxy)-3-[1-(trans-4-methylcyclohexyl)-1H-imidazol-4-yl]propionic acid]: 8.1 nM; `C[C@H]1CC[C@H](n2cnc(CC(C(=O)O)N3CC[C@H](N)C3)c2)CC1` (stereo partly drawn) [Example 26, 2-[(3S)-3-Aminopyrrolidin-1-yl]-3-[1-(trans-4-methylcyclohexyl)-1H-imidazol-4-yl]propionic acid]: 21 nM; `NCCCC(Cc1cn([C@H]2CC[C@H](Oc3ccncc3)CC2)cn1)C(=O)O` (stereo partly drawn) [Example 38, 5-Amino-2-({1-[trans-4-(pyridin-4-yloxy)cyclohexyl]-1H-imidazol-4-yl}methyl)valeric acid hydrochloride]: 9.8 nM.
With `NCCCC(Cc1cn([C@H]2CC[C@@H](O)CC2)cn1)C(=O)O` (stereo partly drawn) [Example 37, 5-Amino-2-{[1-(cis-4-hydroxycyclohexyl)-1H-imidazol-4-yl]methyl}valeric acid], the IC50 amounted to 19 nM.
Compound `C[C@H](CN)C[C@H](Cc1cn([C@H]2CC[C@H](C)CC2)cn1)C(=O)O` [34(2R,4S form), (2R,4S)-5-Amino-4-methyl-2-{[1-(trans-4-methylcyclohexyl)-1H-imidazol-4-yl]methyl}valeric acid] showed an IC50 of 34 nM.
Consider `NCCCC(Cc1cn(C2CCCCCC2)cn1)C(=O)O` (stereo not shown) [Example 10, 5-Amino-2-[(1-cycloheptyl-1H-imidazol-4-yl)methyl]valeric acid], for which 21 nM corresponded to half-maximal inhibition (IC50).
Same read-out and setting: next, `NCCCC(Cc1cn([C@H]2CC3CCC2C3)cn1)C(=O)O` (stereo partly drawn) [Example 12, 5-Amino-2-([1-[endo-bicyclo[2.2.1]hept-2-yl]-1H-imidazol-4-yl]methyl)valeric acid]: 25 nM; `C[C@H](CN)OC(Cc1cn([C@H]2CC[C@H](C)CC2)cn1)C(=O)O` (stereo partly drawn) [Example 25, 2-[(1R)-2-Amino-1-methylethoxy]-3-[1-(trans-4-methylcyclohexyl)-1H-imidazol-4-yl]propionic acid]: 7 nM.

For another assay, the system named is iron chloride-induced thrombus models.
Assay: not given
As to conditions: mice, intravenous administration; cited from earlier work.
With “potato carboxypeptidase inhibitor (PCI): TAFIa-inhibiting polypeptide consisting of 39 amino acids (QQHADPICNKPCKTHDDCSGAWFCQACWNSARTCGPYVG; UniProt P01075 1-39, looked up)”, the antithrombotic effect entry is reported as “antithrombotic effect”.

The next assay concerns normal human plasma. The experiment in a line: Fibrinolysis enhancing activity by measurement of time of plasma clot lysis. The format is biochemical. As to conditions: normal human plasma with tPA; concentration that achieves 50% of 1/2 LT. On the procedure:
To a 96-well plate, 20 μL/well HBS, 50 μL/well normal human plasma, 10 μL/well compound solution (the compound solution was prepared by dissolving the compound in HBS, followed by serial dilution with this buffer), and 10 μL/well tPA (Activacin (Kyowa Hakko Kirin Co., Ltd.) was adjusted to 600,000 U/mL with a lysis solution included therein, followed by dilution with HBS) were added, and the mixture was stirred. Then, 10 μL/well reaction solution A (13.8 U/mL human thrombin, 170 mM CaCl2, and 0.9 U/mL thrombomodulin) was added thereto, and the mixture was stirred again. The absorbance at 405 nm was measured using a plate reader at 30-second intervals, with the temperature kept at 37° C. to measure the extent of coagulation. […] A concentration that achieves 50% of 1/2 LT was calculated as EC50 from the relationship between the concentration of the test substance and 1/2 LT. Compound A (compound of Example 7 in the pamphlet of International Publication No. WO 2002/014285) was used as a control.
For `C[C@H]1CC[C@H](n2cnc(C[C@H](CCCN)C(=O)O)c2)CC1` [15(2S form), (2S)-5-Amino-2-{[1-(trans-4-methylcyclohexyl)-1H-imidazol-4-yl]methyl}valeric acid], the EC50 (in general, the midpoint of the concentration-response curve) was determined as 12 nM.
